Measured values published in publication PMC7866009, “Evaluation of Nanotargeted ^111In-Cyclic RGDfK-Liposome in a Human Melanoma Xenotransplantation Model” (International Journal of Molecular Sciences, 2021).
One block for each molecule: values may come before it. Non-standard residues stand in square brackets, D forms with d.

Columns and labels:
[1] = test system: αVβ3 integrin-mediated adhesion of A375.S2 cells; assay: CytoSelect cell adhesion assay of A375.S2 cells on extracellular matrix proteins; format: cell-based, human; details: 100 nM; cells adhere to coated plate at 37 °C (1 h in legend, 90 min in method); crystal violet OD 560 nm; five experiments
Description: Next, we tested the effect of the cyclic RGDfK-liposome on the αVβ3 integrin -mediated cellular adhesion using human malignant melanoma A375.S2 cells on recombinant extracellular matrix proteins.
Figure 1 Evaluating the effect of the cyclic RGDfK-liposome on αVβ3 integrin-mediated cell adhesion. […] A375.S2 cells was pretreated with 100 nM cRGDfV, cRGDfK, cRGDfK-PEG2000-DSPE or the cRGDfK-liposome and allowed to adhere to a coating of fibronectin, collagenI or collagen IV for 1 h at 37 °C before washing and detection of cell adhesion (B) or followed by staining with FITC-labeled mouse anti-human CD51/CD61 monoclonal antibody (C). […] These experiments were performed for five times.
Adhesion assay were performed with CytoSelect TM Cell Adhesion Assay Kit. Principle, A375.S2 cells (1 × 10^6/well) in working solution (serum-free MEM medium, 1mM Mn^2+, and 0.5% bovine serum albumin) were allowed to adhere to extracellular matrix proteins-coated plate for 90 min at 37 °C. Cells were analyzed for binding in the presence or absence of test subjects. Non-adherent cells were removed by a flick wash. The adherent cells were stained with crystal violet and examined the optical density at λmax 560 nm.

[2] = test system: integrin αVβ3; details: cited from earlier work
Source text: The arginin-glycine-aspatic acid (RGD) sequence is the cell attachment site of a large number of adhesive extracellular matrix, blood, and cell surface proteins, and nearly half of the over 20 known integrins recognize this sequence in their adhesion protein ligands. The integrin-binding selective activity to only one or a few of the RGD-directed integrins can be designed by cyclizing peptides with selected sequences around the RGD.

[3] = biological target: αVβ3 integrin (human (endogenous in A375.S2)) (UniProt P06756)
[4] = biological target: αVβ3 integrin (human (endogenous in A375.S2)) (UniProt P06756); remark: listed apart in the source

UniProt P06756, sequence (P06756 31-1048, chain 1 of 2): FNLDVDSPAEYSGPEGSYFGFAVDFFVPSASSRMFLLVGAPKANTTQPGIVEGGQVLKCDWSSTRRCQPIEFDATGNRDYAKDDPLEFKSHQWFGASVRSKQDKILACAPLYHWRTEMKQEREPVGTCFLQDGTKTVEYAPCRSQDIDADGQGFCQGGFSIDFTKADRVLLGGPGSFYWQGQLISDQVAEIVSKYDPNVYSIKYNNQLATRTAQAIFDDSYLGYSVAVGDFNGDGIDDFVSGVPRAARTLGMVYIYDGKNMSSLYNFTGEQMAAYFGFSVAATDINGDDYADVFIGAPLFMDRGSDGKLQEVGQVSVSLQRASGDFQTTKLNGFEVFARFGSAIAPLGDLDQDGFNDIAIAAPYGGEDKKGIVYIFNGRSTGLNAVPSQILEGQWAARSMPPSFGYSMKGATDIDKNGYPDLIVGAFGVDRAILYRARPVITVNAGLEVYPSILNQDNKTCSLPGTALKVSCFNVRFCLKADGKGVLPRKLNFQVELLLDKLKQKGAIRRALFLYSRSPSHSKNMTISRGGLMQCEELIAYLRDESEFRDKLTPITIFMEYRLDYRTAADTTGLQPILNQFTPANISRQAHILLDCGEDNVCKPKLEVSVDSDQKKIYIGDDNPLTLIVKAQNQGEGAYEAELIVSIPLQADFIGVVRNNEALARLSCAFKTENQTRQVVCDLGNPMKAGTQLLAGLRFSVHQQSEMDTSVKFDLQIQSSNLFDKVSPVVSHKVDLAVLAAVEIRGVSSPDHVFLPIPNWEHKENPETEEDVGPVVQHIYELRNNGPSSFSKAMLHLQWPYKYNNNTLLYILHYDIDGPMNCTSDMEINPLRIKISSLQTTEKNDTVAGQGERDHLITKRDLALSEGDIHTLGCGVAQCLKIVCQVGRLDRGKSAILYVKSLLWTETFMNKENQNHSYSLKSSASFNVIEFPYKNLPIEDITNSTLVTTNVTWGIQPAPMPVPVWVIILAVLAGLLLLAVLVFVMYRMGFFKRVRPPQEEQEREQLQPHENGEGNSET
UniProt P06756, sequence (P05106 27-788, chain 2 of 2, further chain): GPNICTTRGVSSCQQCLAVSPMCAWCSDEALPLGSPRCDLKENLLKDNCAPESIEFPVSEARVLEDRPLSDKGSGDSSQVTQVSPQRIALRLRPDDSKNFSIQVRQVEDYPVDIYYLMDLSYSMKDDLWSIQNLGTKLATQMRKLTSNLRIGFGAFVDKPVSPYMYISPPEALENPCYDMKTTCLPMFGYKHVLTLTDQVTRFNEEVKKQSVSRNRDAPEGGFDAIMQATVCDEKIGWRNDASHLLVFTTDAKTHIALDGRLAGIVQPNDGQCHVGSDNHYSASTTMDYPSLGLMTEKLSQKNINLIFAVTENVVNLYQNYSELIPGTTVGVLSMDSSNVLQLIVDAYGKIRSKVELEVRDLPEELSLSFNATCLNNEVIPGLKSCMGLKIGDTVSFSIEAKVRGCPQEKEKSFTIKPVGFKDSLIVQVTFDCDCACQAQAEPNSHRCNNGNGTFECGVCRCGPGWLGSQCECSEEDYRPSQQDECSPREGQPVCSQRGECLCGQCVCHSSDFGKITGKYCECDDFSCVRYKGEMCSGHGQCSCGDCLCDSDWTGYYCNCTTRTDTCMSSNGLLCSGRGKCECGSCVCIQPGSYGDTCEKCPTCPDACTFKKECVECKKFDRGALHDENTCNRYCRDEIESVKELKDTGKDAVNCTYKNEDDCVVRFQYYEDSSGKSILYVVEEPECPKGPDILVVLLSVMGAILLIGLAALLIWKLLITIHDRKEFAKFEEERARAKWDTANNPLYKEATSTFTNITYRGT

Molecule: N=C(N)NCCC[C@@H]1NC(=O)[C@H](CCCCN)NC(=O)[C@@H](Cc2ccccc2)NC(=O)[C@H](CC(=O)O)NC(=O)CNC1=O [cRGDfK]
A375.S2 cell adhesion to fibronectin, collagen I, and collagen IV [1]: markedly reduced
binding affinity for integrin αVβ3 [2]: high binding affinity

Molecule: CC(C)[C@@H]1NC(=O)[C@@H](Cc2ccccc2)NC(=O)[C@H](CC(=O)O)NC(=O)CNC(=O)[C@H](CCCNC(=N)N)NC1=O [cRGDfV]
A375.S2 cell adhesion to fibronectin, collagen I, and collagen IV [1]: markedly reduced
binding affinity for integrin αVβ3 [2]: high binding affinity

tumor-to-blood ratio of the 111In-labeled cyclic RGDfK-liposome, mice with a metastatic growth of human melanoma cells (111In-liposome without peptide: 1.3) [3]: 5.6
uptake of the 111In-labeled cyclic RGDfK-liposome in tumor (jejunal lymph node), mice with a metastatic growth of human melanoma cells (111In-liposome without peptide: 2.9) [3]: 6.2 %ID/g
tumor-to-blood ratio of the 111In-labeled cyclic RGDfK-liposome, mice without a metastatic growth of human melanoma cells (111In-liposome without peptide: 1) [4]: 4.8
uptake of the 111In-labeled cyclic RGDfK-liposome in tumor, mice without a metastatic growth of human melanoma cells (111In-liposome without peptide: 2.2) [4]: 5.3 %ID/g
B1: cyclic RGDfK-liposome (peptide)
peptide: cyclo(RGD[dF]K)
modifications: also: conjugated via NHS-PEG2000-DSPE, inserted into PEGylated liposome
